According to PubChem BioAssay (NCI):
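Following 48 hours of exposure in 96-well plates, responses at five concentrations were used to interpolate endpoints linearly. GI50 = concentration required for 50% inhibition of growth. At the TGI there is no net growth.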

Assays:
Test in all cases: NCI-60 cell line screen, 48 h
NCI/ADR-RES ovarian = system: NCI/ADR-RES ovarian
MDA-MB-435 = system: MDA-MB-435
HL-60(TB) leukemia = system: HL-60(TB) leukemia
SF-539 CNS = system: SF-539 CNS
DU-145 prostate = system: DU-145 prostate
KM12 colon = system: KM12 colon
IGROV1 ovarian = system: IGROV1 ovarian
HOP-62 NSCLC = system: HOP-62 NSCLC
UACC-257 melanoma = system: UACC-257 melanoma
SW-620 colon = system: SW-620 colon
DMS 273 small cell lung = system: DMS 273 small cell lung
NCI-H226 lung = system: NCI-H226 lung
SF-268 CNS = system: SF-268 CNS
OVCAR-4 ovarian = system: OVCAR-4 ovarian
OVCAR-8 ovarian = system: OVCAR-8 ovarian

| SMILES | GI50 (NCI/ADR-RES ovarian) [nM] | TGI (NCI/ADR-RES ovarian) [nM] | GI50 (MDA-MB-435) [nM] | TGI (MDA-MB-435) [nM] | GI50 (HL-60(TB) leukemia) [nM] | TGI (HL-60(TB) leukemia) [nM] | GI50 (SF-539 CNS) [nM] | TGI (SF-539 CNS) [nM] | GI50 (DU-145 prostate) [nM] | TGI (DU-145 prostate) [nM] | TGI (KM12 colon) [nM] | TGI (IGROV1 ovarian) [nM] | TGI (HOP-62 NSCLC) [nM] | TGI (UACC-257 melanoma) [nM] | TGI (SW-620 colon) [nM] | TGI (DMS 273 small cell lung) [nM] | TGI (NCI-H226 lung) [nM] | TGI (SF-268 CNS) [nM] | TGI (OVCAR-4 ovarian) [nM] | TGI (OVCAR-8 ovarian) [nM] |
| --- | --- | --- | --- | --- | --- | --- | --- | --- | --- | --- | --- | --- | --- | --- | --- | --- | --- | --- | --- | --- |
| NCCCn1c2c(c3ccc([N+](=O)[O-])cc3c1=O)C(=O)c1cc(F)ccc1-2 | 41.2 | 1200 | 76.2 | 923 | < 16 | 166 | 28.8 | 101 | < 10.4 | 451 |  |  |  |  |  |  |  |  |  |  |
| CN1C(=O)CN2C(Cl)(Cl)C2(c2ccccc2)c2cc(Cl)ccc21 (stereo not given) |  |  |  |  |  |  |  |  |  |  | > 100000 | > 100000 | > 100000 | > 100000 | > 100000 | > 100000 | > 100000 | > 100000 | > 100000 | > 100000 |
